Experimental data: paper PMC7277860, “Viridistratins A−C, Antimicrobial and Cytotoxic Benzo[j]fluoranthenes from Stromata of Annulohypoxylon viridistratum (Hypoxylaceae, Ascomycota)” (Biomolecules, 2020)
In brackets after ≈: the same amount, converted by molar mass.

Tests used:
Cytotoxicity assay (MTT) [1] = type: cell-based
Method: (§1) Compounds 1−5 were dissolved as described in the previous section. The cytotoxicity assay was initially performed against the cell lines L929 (mouse fibroblasts), as well as KB 3.1 (human papillomavirus-related endocervical adenocarcinoma), as described previously. A detailed protocol, as well as sources of the cell lines, is given in the Supporting Information.
(§2) After incubating the cell lines with a serial dilution of the test compounds (final range: 37 to 0.6 × 10^−3 µg/mL) for five days, the cells were dyed using 3-(4,5-dimethyl-2-thiazolyl)-2,5-diphenyl-2H-tetrazolium bromide (MTT), which is only converted to its purple formazan derivative by living cells. Then, the intensity of the purple derivative in relation to cells without additive (set to 100% viability) for each concentration of a test compound was quantified. For this, the absorption at 595 nm was measured using a microplate reader to calculate the percentage of cell viability. From this, the half-maximum inhibitory concentration (IC50, in µM) was calculated.
(§3) Protocol: Cytotoxicity Assay
(§4) The ass ay w as co nducted i n 9 6-well flat-bottom mi crotiter plates using the parameters summarised i n Tabl e S 2 and as described in [S2].
(§5) Cell lines L929 and KB 3.1 were incubated at 37 °C under 10 % CO2 in Gibco™ DMEM medium (Thermo Fisher Scientific, Waltham, MA, USA) supplemented with 10 % FBS. A microtiter plate was filled with 120 µL of this suspension (50,000/mL) in each well.
(§6) Seperately, another microtiter plate was filled with 100 µL of growth medium in each well. Then, 50 µL of the test compound sol utions (1 mg/mL) were given to wells of the first column in two replicates (one compound per row). C ell s wi thout addi ti ves, Me O H, and MeOH: DMSO 9+1 were used as negative controls. Starting from the first column, 50 µL of the solutions were gradually transferred to the ne xt col umn, the conte nts thoroughl y mi xed, and 50 µ L transferred to the following column. This created a serial dilution of the test compounds r anging from 333 µg/mL to 1.9 ×10−3 µg/mL. The remai ni ng 50 µL after column twelve were discarded. From this microtiter plate, 60 µL of the sol utions from 111 µg/ mL to 1.9×10−3 µg/mL were given to the first plate containing 120 µL of the cel l suspens i ons (i.e. the hi ghest concentrati on 333 µg/mL was not used). T his resulted i n fi nal compound concent rati ons rangi ng from […]
(§7) After 5 days of incubation under the aforeme ntioned i ncubati on condi ti ons, the half maximum inhibitory concentrati ons (IC 50) were determined using a colorimetric tetrazolium dye MTT assay [S3].
(§8) For this, 20 µL of a 5 mg/mL solution of 3-( 4 ,5 -dimethyl-2-thi azo l yl)-2 ,5 -di phenyl -2H-tetrazolium bromide (MTT) w ere added to each well and incubated for two hours at 37 °C. Then, the microtiter plate was centrifuged (3,000 r p m, 5 mi n) and the supernat ant remo ved by ho l di ng the pl ate upsi de-do wn and gentle shaking. Afterwards, the wells were washed using 100 µL of phosph ate buffered saline (PBS).
(§9) The plate was again centrifuged and the supernatant removed as described before. Then, 100 µL of an isopropanol:HCl solution (1L i sopropanol+4 mL HCl 37 % w/v) were added to the wells. After i ncubati ng fo r 10 mi n at ambi ent te mperature, the a bso r pti o n of the well s at 595 nm was measured wi th an I nfi ni te ® 200 Pro microplate reader (TECAN, Männedorf, Schweiz).
(§10) The absorption values of the cells without additives were averaged and set to 100 % cell viability.
(§11) Then, t he me ans of absorption of the two compound replicates were set in relation to the blank media.
These percentage values were plotted a gainst the concentration range (37 µg/mL to 0.6×10 −3 µg/mL).
The IC50 val ue w as read from the plot ( i n µg/mL) and the uni ts conversed to µM.
If effects were observed wi th cell lines L929 and KB 3.1 (IC50 < 50 µM), the other cell lines were tested using the same protocol.
Table S2: Cytotoxicity assay experiment parameters cell line type No. growth medium […]

Cytotoxicity assay (MTT) [2] = type: cell-based, human
Method: as §1, §2
If an inhibition of cell viability with an IC50 < 50 µM was observed, further cell lines were subjected to the test compounds: PC-3 (human prostate adenocarcinoma), SK-OV-3 (human ovary adenocarcinoma), MCF-7 (human breast adenocarcinoma), A431 (human squamous carcinoma) and A549 (human lung carcinoma).
as §3, §4, §5, §6, §7, §8, §9, §10, §11
These percentage values were plotted a gainst the concentration range (37 µg/mL to 0.6×10 −3 µg/mL). […]

Pseudomonas aeruginosa = assay: MIC serial dilution assay; type: cell-based; settings: Pseudomonas aeruginosa PA14; overnight, 37 °C; reference gentamicin 0.1 mg/mL; read-out: Minimum Inhibitory Concentration (MIC)
Method: Compounds 1, 2, 4 and 5 were dissolved in MeOH (1 mg/mL) for the antimicrobial activity assay, while compound 3 was dissolved in MeOH: DMSO 9+1 (1 mg/mL). The solvents were also used as negative controls.
Minimum inhibitory concentrations (MIC) were determined in a serial dilution assay, as described previously; a detailed protocol can be found in the Supporting Information. The compounds (1 mg/mL) were diluted to a range of 66.7 to 0.52 µg/mL and incubated with the test organisms overnight. Inhibition of growth was visually evaluated the next day: the MIC is defined as the lowest concentration of the test compound where no growth of the test organism was observed. Various test organisms of fungal and bacterial origin were tested to cover a broad range of microorganisms. This selection is also being used as a standard test panel in our attempts to discover new anti-infectives, as it represents a broad spectrum of pathogens of clinical interest, as well as sensitive indicator strains (bacteria: Bacillus subtilis, Staphylococcus aureus, Micrococcus luteus, Chromobacterium violaceum, Escherichia coli and Pseudomonas aeruginosa; mycobacteria: Mycolicibacterium smegmatis and fungi: Candida albicans, Schizosaccharomyces pombe, Mucor hiemalis, Pichia anomala and Rhodotorula glutinis).
Protocol: Antimicrobial Activi ty Assay
The assay was conducted as a minimum inhi bitory concentration (MIC) assay in 96-well ro und-bottom mi crotiter pl ate s usi ng the p ar ameter s su mm ari zed i n T a bl e S 1 and as already described i n [S1].
Stocks of the test organi sms were generated by growing the organisms o ver ni ght i n 50 mL shaki ng fl asks fi ll ed wi th 25 mL of the growth medi um at 140 rpm (for media and temperatures see Table S1). If the organisms were well grown the ne xt day, which was checked by occurrence of an optical density (OD)>30 of the suspension (OD600 nm for bacteria, OD548 nm for fungi and M. smegma tis) , aliquots of these were stored i n 1.5 mL reaction tube s in a freezer at −80 °C for up to 12 mo nths . Upon use, aliquots were unth awed and the OD of the suspension measured and adjusted by diluting with the respective growth medi um. OD600 nm w as adj usted to 0.01 and OD548 nm to 0.1.
Subse que ntly, 150 µL o f the adjusted suspensions were added to all wells of a 96-wel l microtiter pl ate (one test organi sm per plate). In row A, additional 130 µL of suspensions plus 20 µL of the test compounds (1 mg/mL) and the controls (one compound/column) were added. MeOH as well as MeOH:DMSO 9+1 were used as negative controls, while different positive controls (refer ences) were used for the test organisms (see Tabl e S1). Then, starti ng from row A, 150 µ L of the suspension were transferred to the next row, the contents thoroughly mixed, and 150 µ L transferred to the following row.
The remaining 150 µ L after row H were discarded. […]
compounds, ranging from 66.7 µg/mL i n row A to 0.52 µg/mL i n row H.
The microtiter plates were then incubated overnight o n a microplate shaker at 800 rpm at 30 or 37 °C (see Table S1) and were visually evaluated the next day. The MIC is defined as the lowest concentration were no growth of the test organism was o bserved. A lower MIC thus corresponds to a higher antimicrobial activity of the test compound.
Table S1: MIC assay ex per i men t parameters test organism strain No. growth incubation positive control (reference) […]
Pseudomonas a erugi nosa PA14 MHB 1 37 gent amici n 0.1 mg/mL […]
Rhodotorula glutinis DSM10134 MYC 3 30 nyst ati n 1.0 mg/mL
1 MHB: Müller-Hinton Broth (SN X927.1, Ca r l Roth GmbH, Karlsruhe, Germany) 2 7H9+ADC: Middlebrook 7H9 Broth Base + Middlebrook ADC Growth Supplement (SN M0678+M0553, Merck, Darmstadt, Germany)
3 MYC: 1 % w/v, bacto peptone, 1% w/v yeast extract, 2 % w /v glycerol, pH 6.3 [S1] Helaly, S.E.; Ashrafi, S.; Teponno, R.B.; Bernecker, S.; Dababat, A.A.; Maier, W.; Stadler, M.
Nematicidal Cyclic Lipodepsipeptides and a Xanthocillin Derivative from a Phaeosphariaceous […]

Row | MIC (Pseudomonas aeruginosa) [µg/mL] | SMILES | IC50 at 5 days (Cytotoxicity assay (MTT) [1]; KB 3.1 human endocervical adenocarcinoma) [nM] | IC50 at 5 days (Cytotoxicity assay (MTT) [1]; L929 mouse fibroblasts) [nM] | IC50 at 5 days (Cytotoxicity assay (MTT) [2]; A431 human squamous AC) [nM] | IC50 at 5 days (Cytotoxicity assay (MTT) [2]; A549 human lung carcinoma) [nM] | IC50 at 5 days (Cytotoxicity assay (MTT) [2]; MCF-7 human breast AC) [nM] | IC50 at 5 days (Cytotoxicity assay (MTT) [2]; PC-3 human prostate AC) [nM] | IC50 at 5 days (Cytotoxicity assay (MTT) [2]; SK-OV-3 human ovary AC) [nM]
1 |  | C/C(=C\c1csc(C)n1)[C@@H]1C[C@@H]2O[C@]2(C)CCC[C@H](C)[C@H](O)[C@@H](C)C(=O)C(C)(C)[C@@H](O)CC(=O)O1 [epothilone B, reference compound] | 0.79 | 0.06 | 0.05 | 0.08 | 0.12 | 0.08 | 0.34
2 | 0.4 (≈ 0.838 µM) | CNC(C)C1CCC(N)C(OC2C(N)CC(N)C(OC3OCC(C)(O)C(NC)C3O)C2O)O1 (centres unmarked) [gentamicin, reference compound] |  |  |  |  |  |  | 
